Reference: US20060263802A1 (priority 2003, published 2006)

Legend:
Assay type in all cases: binding
[1] = test system: human monoclonal antibody CRJA
[2] = test system: human monoclonal antibody CR57
[3] = test system: human monoclonal antibody CRJA; remark: listed apart in the source
[4] = test system: human monoclonal antibody CRJB
[5] = test system: human monoclonal antibody CRJB; remark: listed apart in the source
[6] = test system: human monoclonal antibody CR57; remark: listed apart in the source

Sequence | Binding of human monoclonal antibody CRJA to linear peptide (PEPSCAN-ELISA signal) [1] | Binding of human monoclonal antibody CR57 to linear peptide (PEPSCAN-ELISA signal) [2] | Binding of CRJA to looped/cyclic peptide (PEPSCAN-ELISA signal) [3] | Binding of human monoclonal antibody CRJB to linear peptide (PEPSCAN-ELISA signal) [4] | Binding of CRJB to looped/cyclic peptide (PEPSCAN-ELISA signal) [5] | Binding of CR57 to looped/cyclic peptide (PEPSCAN-ELISA signal) [6] | Binding of CRJA to linear peptide (PEPSCAN-ELISA signal) [1] | Binding of CR57 to linear peptide (PEPSCAN-ELISA signal) [2] | Binding of CRJA (10 μg/ml) to looped/cyclic peptide (PEPSCAN-ELISA signal) [3] | Binding of CRJB to linear peptide (PEPSCAN-ELISA signal) [4] | Binding of CRJB (10 μg/ml) to looped/cyclic peptide (PEPSCAN-ELISA signal) [5] | Binding of CR57 (10 μg/ml) to looped/cyclic peptide (PEPSCAN-ELISA signal) [6] | Binding of CRJA (10 μg/ml) to looped/cyclic peptide (PEPSCAN-ELISA) [3] | Binding of CRJB (10 μg/ml) to looped/cyclic peptide (PEPSCAN-ELISA) [5] | Binding of CR57 (10 μg/ml) to looped/cyclic peptide (PEPSCAN-ELISA) [6]
VEVHLPDVHNQVSGV | 117 | 106 | 120 | 141 | 104 | 138 | – | – | – | – | – | – | – | – | –
FPSGKCSGVAVSSTY | – | – | – | – | – | – | 93 | 64 | 80 | 134 | 74 | 90 | – | – | –
WSPIDIHHLSCPNNL | – | – | – | – | – | – | 83 | 80 | 151 | 106 | 92 | 89 | – | – | –
LESSVIPLVHPLADP | – | – | – | – | – | – | 110 | 90 | – | 128 | – | – | 114 | 128 | 120
PIYTILDKLGPWSPI | – | – | – | – | – | – | 143 | 36 | 78 | 89 | 77 | 58 | – | – | –
YNWKMAGDPRYEESL | – | – | – | – | – | – | 110 | 83 | 98 | 118 | 89 | 89 | – | – | –
AGDPRYEESLHNPYP | – | – | – | – | – | – | 83 | 40 | 58 | 101 | 54 | 64 | – | – | –
ISPSVADLDPYDRSL | – | – | – | – | – | – | 56 | 50 | 46 | 119 | 64 | 66 | – | – | –
VFFNGIILGPDGNVL | – | – | – | – | – | – | 82 | 55 | – | 132 | – | – | 83 | 93 | 110
ESLHNPYPDYRWLRT | – | – | – | – | – | – | 80 | 92 | 106 | 132 | 92 | 123 | – | – | –
VAMQTSNETKWCPPD | – | – | – | – | – | – | 97 | 86 | – | 104 | – | – | 90 | 66 | 45
WKMAGDPRYEESLHN | – | – | – | – | – | – | 86 | 69 | 90 | 101 | 77 | 96 | – | – | –
SETCGFVDERGLYKS | – | – | – | – | – | – | 71 | 33 | – | 116 | – | – | 56 | 78 | 58
PSVADLDPYDRSLHS | – | – | – | – | – | – | 72 | 44 | 62 | 114 | 33 | 57 | – | – | –
PSTVFKDGDEAEDFV | 105 | 104 | 113 | 143 | 101 | 118 | – | – | – | – | – | – | – | – | –
